Laboratory results as given in patent US20030068615A1, “Polypeptides that bind HIV gp120 and related nucleic acids, antibodies, compositions, and methods of use” (priority 1999, published 2003).
Where “and” joins values, the source holds several entries; their conditions need not be identical. Equal values may be shown once. Read-outs that look alike come from different tables or passages of the source.

Target: HIV-1LAI envelope gp120 (Human immunodeficiency virus type 1 group M subtype B, UniProt P03377)
Format: binding
Conditions: for Relative % of Control: mean of two syntheses and binding experiments ± average deviation, wild-type = 100%; for Binding Results For Window Length (counts bound-background), 9: 9-mer starting at the first residue of the printed sequence; for Binding Results For Window Length (counts bound-background), 12: 12-mer starting at the first residue of the printed sequence; for Binding Results For Window Length (counts bound-background), 15: 15-mer starting at the first residue of the printed sequence; for number of radioactive decays (counts) counted: human CD4 21-mer scan, empty control 2075; for Counts per 20′ Average-background: CCR5 18-mer scan
[1] = STRL33 18-mer scan, background subtracted, first of two count columns
[2] = STRL33 18-mer scan, background subtracted, second of two count columns
[3] = Panel B, 15-mers and 18-mers of CD4, empty control 575
[4] = Panel C, 15-mers and 18-mers of CD4, empty control 556
[5] = Panel F, sequential alanine replacements of CD4 polypeptides, duplicate series, empty control 569
[6] = STRL33 amino terminus, background subtracted
[7] = Panel E, 9-mers and 12-mers of CD4, empty control 571
[8] = Panel D, 9-mers and 12-mers of CD4, empty control […]
[9] = CXCR4 18-mer scan, background subtracted, empty control 0
[10] = CXCR4 18-mer scan, empty control 412
[11] = radiolabeled HIV-1LAI gp120, background subtracted
[12] = Panel A, 21-mers of CD4, empty control 515 and 617

EEHQAFLQFSKVFLPCMY [STRL33 segment 21-38]
radioactive counts recorded in twenty minutes [1]: 2316.5 counts | radioactive counts recorded in twenty minutes [2]: 1819.5 counts

WDQGNFPLIIKNLKI
COUNTS of radiolabeled gp120 retained [3]: 534 counts

MEGISIYTSDAYTEEMGS
Relative % of Control (CXCR4 (1-18) alanine variants): 38 ± 0.4%

VYKKEGEQVEFSFPLAFT
COUNTS of radiolabeled gp120 retained [4]: 4307 counts

AHLLQGQSLTLTLES
COUNTS of radiolabeled gp120 retained [5]: 8602 counts and 5826 counts

NDSSQEEHQAFLQFS
Binding Results For Window Length (counts bound-background), 9 [6]: 180 counts | Binding Results For Window Length (counts bound-background), 12 [6]: 497 counts | Binding Results For Window Length (counts bound-background), 15 [6]: 6160 counts

VCTLPFWAYAGIHEWVFG [STRL33 segment 81-98]
radioactive counts recorded in twenty minutes [1]: 1819.5 counts | radioactive counts recorded in twenty minutes [2]: 1754.5 counts

VLAFQKASSIVY
COUNTS of radiolabeled gp120 retained [7]: 548 counts

YICEVEDQK
COUNTS of radiolabeled gp120 retained [8]: 728 counts

IFFCVRCRHRRRQAERMSQIK
number of radioactive decays (counts) counted: 2085 counts

FPLAFTVEKLTG
COUNTS of radiolabeled gp120 retained [7]: 622 counts

DLVFVCTLPFWAYAGIHE [STRL33 segment 77-94]
radioactive counts recorded in twenty minutes [1]: 1116.5 counts | radioactive counts recorded in twenty minutes [2]: 1063.5 counts

SSIVYKKEGEQVEFS
COUNTS of radiolabeled gp120 retained [4]: 558 counts

DAVANWYFGNFLCKAVHV
radioactive counts recorded in twenty minutes [9]: 112 counts | radioactive counts recorded in twenty minutes [10]: 524 counts

RNEKKRHRAVRLIFTIMI [CCR5 segment 225-]
Counts per 20′ Average-background [11]: 23 counts per 20′

SFWDSSQEEEQAFLQFSK
Binding Results For Window Length (counts bound-background), 9 [6]: 304 counts | Binding Results For Window Length (counts bound-background), 12 [6]: 303 counts | Binding Results For Window Length (counts bound-background), 15 [6]: 969 counts | Binding Results For Window Length (counts bound-background), 18 (STRL33 amino terminus, 18-mer starting at the first residue of the printed sequence, background subtracted): 4537 counts

GLTANSDTH
COUNTS of radiolabeled gp120 retained [8]: 481 counts

FTVEKLTGS
COUNTS of radiolabeled gp120 retained [7]: 574 counts

YAGIHEWVFGQVMCKSLL [STRL33 segment 89-106]
radioactive counts recorded in twenty minutes [1]: 5911.5 counts | radioactive counts recorded in twenty minutes [2]: 6245.5 counts

FPLAFTVEK
COUNTS of radiolabeled gp120 retained [7]: 569 counts

LQNQKKVEFKID
COUNTS of radiolabeled gp120 retained [7]: 508 counts

LTANSDTHLLQG
COUNTS of radiolabeled gp120 retained [8]: 534 counts

EEVQLLVFALTANSD
COUNTS of radiolabeled gp120 retained [5]: 19348 counts and 18254 counts

MDYQVSSPIYAINYYTSE [CCR5 (1-18) variant D11A]
Relative % of Control (CCR5 (1-18) alanine variants): 63 ± 22% | percentage of binding of mutant polypeptide compared to wild-type polypeptide, gp120 (CCR5 alanine mutant peptide, radiolabeled HIV-1LAI gp120): 62.8%

EQVEFSFPLAFTVEK
COUNTS of radiolabeled gp120 retained [4]: 4135 counts

KVEFKIDIVVLAFQKASSIVY
COUNTS of radiolabeled gp120 retained [12]: 635 counts

AFTVEKLTGSGELWWQAE
COUNTS of radiolabeled gp120 retained [4]: 788 counts

CEVEDQKEEVQL
COUNTS of radiolabeled gp120 retained [8]: 561 counts

EAISTVVLATQMTLGFFL [STRL33 segment 185-202]
radioactive counts recorded in twenty minutes [1]: 3973.5 counts | radioactive counts recorded in twenty minutes [2]: 3745.5 counts

VVLAFQKASSIVYKKEGE
COUNTS of radiolabeled gp120 retained [4]: 560 counts

LEAKTGKLHQEVNLVVMRATQ [human CD4 301-321]
number of radioactive decays (counts) counted: 1729 counts

MDYQVSSPIYDANYYTSE
Relative % of Control (CCR5 (1-18) alanine variants): 14 ± 1%

EEVQLLVFGLTANSDTHL
COUNTS of radiolabeled gp120 retained [3]: 783 counts

VLPTWSTPVQPMALIVLGGVA
number of radioactive decays (counts) counted: 2197 counts

ERASSVYTRSTGEQEISV [CCR5 segment 333-]
Counts per 20′ Average-background [11]: 84 counts per 20′

KKVEFKIDIVVLAFQKAS
COUNTS of radiolabeled gp120 retained [4]: 912 counts

PFWAYAGIHEWVFGQVMC
radioactive counts recorded in twenty minutes [1]: 7262.5 counts | radioactive counts recorded in twenty minutes [2]: 7537.5 counts

KEGEQVEFS
COUNTS of radiolabeled gp120 retained [7]: 595 counts

AFLQFSKVFLPCMYLVVF [STRL33 segment 25-42]
radioactive counts recorded in twenty minutes [1]: 1421.5 counts | radioactive counts recorded in twenty minutes [2]: 1359.5 counts

FGQVMCKSLLGIYTINFY
radioactive counts recorded in twenty minutes [1]: 1257.5 counts | radioactive counts recorded in twenty minutes [2]: 1354.5 counts

FQHIMVGLILPGIVILSC
radioactive counts recorded in twenty minutes [9]: 170 counts | radioactive counts recorded in twenty minutes [10]: 582 counts

KEPCFREENANFNKIFLP [CXCR4 segment 25-42]
radioactive counts recorded in twenty minutes [9]: 252 counts | radioactive counts recorded in twenty minutes [10]: 664 counts

IDIVVLAFQKASSIVYKK
COUNTS of radiolabeled gp120 retained [4]: 711 counts

TCSSHFPYSQYQFWKNFQ [CCR5 segment 177-]
Counts per 20′ Average-background [11]: 367 counts per 20′

VYKKEGEQVEFSFPLAFTVEK [human CD4 211-231]
COUNTS of radiolabeled gp120 retained [12]: 2429 counts | number of radioactive decays (counts) counted: 14740 counts

AFTVEKLTG
COUNTS of radiolabeled gp120 retained [7]: 517 counts
